We go through 4 molecules from publication PMC3914206.

Common to all, as to format: binding
Common to all, as to settings: Compound Concentration 10 µM

Assay [1] concerns the target T1, panel of 442 kinases (Homo sapiens, UniProt Q13188).
T1 construct: purchased KINOMEscan
T1 sequence (Q13188 1-491): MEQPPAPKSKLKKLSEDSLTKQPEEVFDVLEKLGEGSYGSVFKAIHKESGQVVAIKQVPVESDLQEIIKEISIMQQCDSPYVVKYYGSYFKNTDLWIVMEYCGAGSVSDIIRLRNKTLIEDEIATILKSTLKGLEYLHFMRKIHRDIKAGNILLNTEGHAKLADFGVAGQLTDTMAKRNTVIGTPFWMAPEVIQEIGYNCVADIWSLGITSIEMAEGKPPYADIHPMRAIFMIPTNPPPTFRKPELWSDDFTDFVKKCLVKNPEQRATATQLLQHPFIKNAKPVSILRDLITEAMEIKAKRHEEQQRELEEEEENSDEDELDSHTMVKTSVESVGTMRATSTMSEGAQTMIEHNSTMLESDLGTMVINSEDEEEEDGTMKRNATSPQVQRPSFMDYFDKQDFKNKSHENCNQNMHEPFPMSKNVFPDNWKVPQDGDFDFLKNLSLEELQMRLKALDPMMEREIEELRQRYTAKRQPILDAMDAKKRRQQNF
The text has this: (§1) We assessed the selectivity of members of this scaffold using the KINOMEscan methodology across a near comprehensive panel of 442 kinases [[18,27]].

The target of assay [2] is T2, panel of 442 kinases (Homo sapiens, UniProt Q14289).
T2 construct: purchased KINOMEscan
Source text: as §1

Assay [3] has as its target T3, panel of 442 kinases (Homo sapiens, UniProt Q16659).
T3 construct: purchased KINOMEscan
Source text: as §1

T2 sequence (Q14289 whole entry): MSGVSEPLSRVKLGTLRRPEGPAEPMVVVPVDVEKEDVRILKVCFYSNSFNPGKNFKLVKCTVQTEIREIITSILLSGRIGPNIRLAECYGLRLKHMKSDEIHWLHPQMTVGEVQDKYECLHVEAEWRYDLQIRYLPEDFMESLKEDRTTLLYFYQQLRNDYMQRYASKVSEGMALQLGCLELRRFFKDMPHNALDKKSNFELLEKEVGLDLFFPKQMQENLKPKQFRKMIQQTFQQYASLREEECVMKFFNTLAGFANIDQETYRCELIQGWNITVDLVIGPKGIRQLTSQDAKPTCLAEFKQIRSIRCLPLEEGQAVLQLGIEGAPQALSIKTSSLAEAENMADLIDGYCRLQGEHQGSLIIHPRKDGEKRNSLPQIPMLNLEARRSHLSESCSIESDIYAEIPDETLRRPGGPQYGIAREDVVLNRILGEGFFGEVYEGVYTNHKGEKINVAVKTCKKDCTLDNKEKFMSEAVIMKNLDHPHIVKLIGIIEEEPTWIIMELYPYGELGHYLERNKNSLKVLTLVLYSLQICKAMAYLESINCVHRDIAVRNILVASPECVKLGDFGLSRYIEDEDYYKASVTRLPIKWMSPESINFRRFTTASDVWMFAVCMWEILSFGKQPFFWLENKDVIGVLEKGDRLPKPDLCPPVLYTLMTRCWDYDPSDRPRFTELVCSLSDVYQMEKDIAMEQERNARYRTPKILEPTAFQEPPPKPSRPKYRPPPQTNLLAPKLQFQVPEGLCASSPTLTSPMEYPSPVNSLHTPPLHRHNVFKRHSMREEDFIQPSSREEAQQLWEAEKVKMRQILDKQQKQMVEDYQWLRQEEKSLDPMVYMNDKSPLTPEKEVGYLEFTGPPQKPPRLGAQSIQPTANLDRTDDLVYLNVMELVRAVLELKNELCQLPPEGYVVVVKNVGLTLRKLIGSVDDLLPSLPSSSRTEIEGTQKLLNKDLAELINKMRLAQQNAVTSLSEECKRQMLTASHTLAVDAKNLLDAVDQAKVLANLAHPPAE
T3 sequence (Q16659 whole entry): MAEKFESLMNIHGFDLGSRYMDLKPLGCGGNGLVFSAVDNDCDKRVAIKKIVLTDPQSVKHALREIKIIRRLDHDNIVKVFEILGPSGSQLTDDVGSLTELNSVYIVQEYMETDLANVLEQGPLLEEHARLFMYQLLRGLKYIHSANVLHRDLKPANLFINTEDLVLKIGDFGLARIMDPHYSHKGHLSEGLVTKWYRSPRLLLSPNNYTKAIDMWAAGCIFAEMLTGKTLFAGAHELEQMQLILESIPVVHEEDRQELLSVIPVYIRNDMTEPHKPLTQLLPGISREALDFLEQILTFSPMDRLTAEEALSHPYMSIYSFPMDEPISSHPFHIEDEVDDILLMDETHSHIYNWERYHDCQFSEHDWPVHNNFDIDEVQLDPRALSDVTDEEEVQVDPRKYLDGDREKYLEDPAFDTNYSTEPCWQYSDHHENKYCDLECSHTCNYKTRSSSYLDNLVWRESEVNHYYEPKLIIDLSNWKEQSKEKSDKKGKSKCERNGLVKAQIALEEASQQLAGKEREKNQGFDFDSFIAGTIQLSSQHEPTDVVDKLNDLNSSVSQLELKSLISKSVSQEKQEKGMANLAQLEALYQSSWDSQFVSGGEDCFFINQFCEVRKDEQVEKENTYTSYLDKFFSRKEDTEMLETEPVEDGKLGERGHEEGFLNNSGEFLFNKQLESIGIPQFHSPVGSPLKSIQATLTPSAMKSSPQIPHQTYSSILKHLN

For the molecule `COc1cc(C(=O)N2CCC(N3CCN(C)CC3)CC2)ccc1Nc1ncc2c(n1)N(C1CCCC1)c1ccccc1C(=O)N2C` [Compound 25, 11-cyclopentyl-2-((2-methoxy-4-(4-(4-methylpiperazin-1-yl)piperidine-1-carbonyl)phenyl)amino)-5-methyl-5H-benzo[e]pyrimido[5,4-b][1,4]diazepin-6(11H)-one], the “KINOMEscan: MST2” value on panel of 442 kinases [1] is 100. The “KINOMEscan: PYK2” value on panel of 442 kinases [2] stood at 17. On panel of 442 kinases [3], the “KINOMEscan: ERK3” value is reported as 100.

Regarding `COc1cc(C(=O)N2CCC(N3CCN(C)CC3)CC2)ccc1Nc1ncc2c(n1)N1CCc3cccc(c31)C(=O)N2C` [Compound 24], at panel of 442 kinases [2], the “KINOMEscan: PYK2” value is reported as 77.

On to `COc1cc(C(=O)N2CCC(N3CCN(C)CC3)CC2)ccc1Nc1ncc2c(n1)N(C)c1ccccc1C(=O)N2C` [15 (LRRK2-IN-1)], for which, on panel of 442 kinases [1], the “KINOMEscan: MST2” value was found to be 71. Further, the “KINOMEscan: PYK2” value on panel of 442 kinases [2] is 78. For the same molecule, the “KINOMEscan: ERK3” value on panel of 442 kinases [3] was 100.

Take `CCOc1cc(C(=O)N2CCC(N3CCN(C)CC3)CC2)ccc1Nc1ncc2c(n1)N(C1CCCC1)c1ccccc1C(=O)N2C` [Compound 26]: the “KINOMEscan: MST2” value on panel of 442 kinases [1] came to 100. Moreover, the “KINOMEscan: PYK2” value at panel of 442 kinases [2] turned out to be 43. The “KINOMEscan: ERK3” value on panel of 442 kinases [3] was 100.
